Residues, ends and D or L forms follow the SMILES beside them. No end group written: not given here.
Experiments:
rhCTGF‐His tag protein = target: T1, rhCTGF‐His tag protein (Homo sapiens, UniProt P29279); assay: MicroScale Thermophoresis (MST) binding to CTGF; conditions: Monolith NT.115, protein labelled with Monolith RED-NHS, 2 × 10^−6 M protein, PBST buffer (PBS, 0.05% Tween-20)
T1 construct: purchased Novoprotein C15W
T1 sequence (P29279 27-349): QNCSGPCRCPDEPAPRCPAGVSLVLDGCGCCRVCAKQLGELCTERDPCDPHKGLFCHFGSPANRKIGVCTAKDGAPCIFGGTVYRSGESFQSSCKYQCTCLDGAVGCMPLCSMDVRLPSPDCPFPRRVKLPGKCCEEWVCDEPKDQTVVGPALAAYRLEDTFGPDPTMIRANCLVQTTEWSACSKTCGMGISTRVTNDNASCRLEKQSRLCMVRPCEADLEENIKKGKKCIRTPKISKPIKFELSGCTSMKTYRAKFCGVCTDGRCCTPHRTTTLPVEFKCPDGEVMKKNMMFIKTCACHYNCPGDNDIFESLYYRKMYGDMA
Experimental: (§1) The affinity between various peptides (CL8, CC14, LT12, CC14S, CE8, FH14S, FH14, and CL8‐M6P3) and purified rhCTGF‐His tag protein (C15W, Novoprotein), IGFBP protein, and TSP proteins, was evaluated using microscale thermophoresis (NanoTemper, Germany). Additionally, the interaction between CL8‐M6P3 and the CCN1, CCN3, and CCN4 proteins was measured using the Dianthus system (NanoTemper, Germany). Prior to measurements, the purified proteins were labeled with fluorescent dye Monolith RED‐NHS (MO‐L011, NanoTemper). For the MST assay, 2 × 10^−6 M proteins (10 µL) were added with variable concentrations of the above peptides in PBST buffer (10 µL, PBS containing 0.05% Tween‐20). After a short incubation, the mixture was loaded into the Monolith NT.115 capillary (MO‐K022, NanoTemper) and analyzed using the Monolith NT.115 (NanoTemper, Germany).

red blood cells = assay: Hemolysis assay; type: cell-based, mice; conditions: mouse erythrocytes, 0-30 × 10^−6 M, 1 h, 37 °C, absorbance 570 nm
Experimental: The hemolytic activities of CL8, CL8‐M6P3, and NanoCLY were determined by monitoring hemoglobin release from red blood cells. Fresh erythrocytes were obtained from the whole blood of mice by centrifugation (1000 × g for 30 min at 4 °C), and washed three times with cold 0.9% NaCl. The erythrocytes were dispensed into 96‐well plates, incubated with CL8, CL8‐M6P3 and NanoCLY at specified concentrations (0, 0.3, 1, 3, 10, and 30 × 10^−6 M) for 1 h at 37 °C, centrifuged at 1000 × g for 10 min, the supernatant samples were collected, and the absorbance at 570 nm was measured by microplate reader Cytation 5 (Biotek, USA). The negative control group was defined as the absorbance obtained in 1× PBS (A PBS), and 100% hemolysis in 0.1%Triton X‐100 (v/v) (A Triton). The hemolysis percentage was calculated as: (A peptide − A PBS)/(ATriton − A PBS) × 100%.

[1] = target: T2, TSP proteins (C-terminal domain of CTGF) (Homo sapiens, UniProt P29279); assay: MST binding to TSP domain of CTGF; conditions: Figure S6c
T2 sequence (P29279 198-243 limits assumed): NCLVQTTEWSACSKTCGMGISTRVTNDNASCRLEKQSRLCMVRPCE
Experimental: as §1

CCN3 = target: T3, CCN3 (Homo sapiens, UniProt P48745); assay: Binding to CCN3 (Dianthus system); conditions: Figure S7a
T3 sequence (P48745 32-357): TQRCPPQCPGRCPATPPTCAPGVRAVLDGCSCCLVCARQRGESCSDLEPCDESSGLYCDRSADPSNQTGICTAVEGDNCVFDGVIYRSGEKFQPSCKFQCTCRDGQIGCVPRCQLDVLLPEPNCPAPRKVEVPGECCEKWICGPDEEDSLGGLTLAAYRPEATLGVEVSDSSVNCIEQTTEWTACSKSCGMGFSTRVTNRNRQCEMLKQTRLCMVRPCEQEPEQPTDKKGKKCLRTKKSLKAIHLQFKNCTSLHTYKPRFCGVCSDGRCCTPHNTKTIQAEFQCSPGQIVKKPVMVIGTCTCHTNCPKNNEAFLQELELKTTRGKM
Experimental: as §1

CCN4 = target: T4, CCN4 (Homo sapiens, UniProt O95388); assay: Binding to CCN4 (Dianthus system); conditions: Figure S7a
T4 sequence (O95388 23-367): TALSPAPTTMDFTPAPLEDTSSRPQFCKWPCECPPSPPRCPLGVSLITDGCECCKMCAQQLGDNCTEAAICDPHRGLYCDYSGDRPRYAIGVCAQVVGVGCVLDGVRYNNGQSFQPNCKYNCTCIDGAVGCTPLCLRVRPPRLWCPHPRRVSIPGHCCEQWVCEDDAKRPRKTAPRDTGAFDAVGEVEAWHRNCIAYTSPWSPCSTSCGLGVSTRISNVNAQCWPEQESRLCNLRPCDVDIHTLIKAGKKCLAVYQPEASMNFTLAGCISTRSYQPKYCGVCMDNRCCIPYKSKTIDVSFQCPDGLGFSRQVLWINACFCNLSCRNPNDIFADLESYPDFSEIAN
Experimental: as §1

[2] = target: IGFBP protein (N-terminal domain of CTGF) (Homo sapiens, UniProt P29279); assay: MST binding to IGFBP domain of CTGF; conditions: Figure S6b
Experimental: as §1

CTGF = target: T5, CTGF (Homo sapiens, UniProt P29279); assay: ELISA of extracellular CTGF in culture media of TNBC cells; type: cell-based; conditions: in vitro, BT549 and MDA-MB-231 culture media, 12 h
T5 construct: endogenous in cells; host or cells: BT549 and MDA-MB-231 (human TNBC cell lines)
T5 sequence (P29279 27-349): T1 sequence (P29279 27-349)
Experimental: BT549 and MDA‐MB‐231 cells were treated with various concentrations of CL8‐M6P3 or NanoCLY for 12 h. Extracellular CTGF protein level in conditioned media was quantified by a human CTGF ELISA kit following the manufacturer's instructions (ab261851, Abcam and CSB‐E07875h, Cusabio). Extracellular CCN1, CCN3, and CCN4 protein levels were quantified using respective ELISA kits (HY‐P7842, HY‐P701327, HY‐P78051, MCE) following the manufacturer's instructions (CSB‐EL015956HU, CSB‐EL026119HU, CSB‐E13884h, Cusabio). Additionally, BSP and β‐CTx levels in serum were quantified by ELISA kit following the manufacturer's instructions (BPE10823, BPE10438, lengton).

CCN1 = target: T6, CCN1 (Homo sapiens, UniProt O00622); assay: Binding to CCN1 (Dianthus system); conditions: Figure S7a
T6 sequence (O00622 25-381): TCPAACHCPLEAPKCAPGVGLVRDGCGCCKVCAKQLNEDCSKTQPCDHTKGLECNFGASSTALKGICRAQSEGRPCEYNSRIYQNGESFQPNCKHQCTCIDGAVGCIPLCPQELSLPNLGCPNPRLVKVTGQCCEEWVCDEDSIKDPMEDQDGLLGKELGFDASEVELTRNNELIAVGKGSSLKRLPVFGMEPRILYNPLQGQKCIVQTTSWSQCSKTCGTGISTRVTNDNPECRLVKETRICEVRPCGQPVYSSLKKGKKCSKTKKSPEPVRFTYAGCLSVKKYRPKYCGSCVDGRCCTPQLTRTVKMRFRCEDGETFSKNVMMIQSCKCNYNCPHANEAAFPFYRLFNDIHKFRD
Experimental: as §1

[3] = target: T7, recombinant human CTGF‐His tag (connective tissue growth factor) (human), P29279; assay: MST; proteins labeled with Monolith RED-NHS; 2 × 10^-6 M protein (10 µL) mixed with variable concentrations of peptide in PBST (10 µL, PBS with 0.05% Tween-20); Monolith NT.115
T7 chain: T1 sequence (P29279 27-349)

[4] = target: T8, recombinant human CTGF‐His tag (connective tissue growth factor) (human, UniProt P29279 27-349, labeled with fluorescent dye Monolith RED‐NHS); assay: as above; conditions: both partners purified
T8 construct: connective tissue growth factor (CTGF/CCN2), human, recombinant; also called CCN2; rhCTGF‐His tag protein; source: bought: Novoprotein (C15W), purified
T8 sequence (looked up): T1 sequence (P29279 27-349)

Molecule: CC(C)C[C@H](NC(=O)[C@H](Cc1ccc(O)cc1)NC(=O)[C@H](Cc1c[nH]cn1)NC(=O)[C@H](C)NC(=O)[C@H](C)NC(=O)[C@H](CO)NC(=O)[C@@H]1CCCN1C(=O)[C@@H](N)CS)C(N)=O [CL8, reference compound] (H-CPSAAHYL-NH2)
- Kd (rhCTGF‐His tag protein): 1230 nM
- hemolysis safety (red blood cells): good hemolysis safety

Molecule: H-CPSAAHYL-PEG3-[Pra(M6P)βAla]3-NH2 [CL8‐M6P3, peptide-based CTGF-LYTAC: CL8 conjugated to glycopeptide scaffold M6P3 by a PEG3 linker]
- interaction with TSP domain of CTGF [1]: interacts
- binding interaction with CCN3 (CCN3): no binding interactions
- binding interaction with CCN4 (CCN4): no binding interactions
- interaction with IGFBP domain of CTGF [2]: interacts
- hemolysis safety (red blood cells): good hemolysis safety
- extracellular CTGF degraded (CTGF): ≈ 50%
- binding interaction with CCN1 (CCN1): no binding interactions

Molecule: CPSAAHYL (modifications not checked) [CL8 peptide]
- Kd [3]: 1230 nM

Molecule: CPSAAHYL (not fully specified (C-terminus)) [CL8‐M6P3]
- Kd [4]: 13400 nM
